Results taken from patent US8716438B2, “Matricryptic ECM peptides for tissue reconstruction” (University of Pittsburgh—Of the Commonwealth System of …, priority 2009, dated 2014).

Tests used:
[1] = test system: human perivascular stem cells; assay: Boyden chamber chemotaxis of human perivascular stem cells; format: cell-based; settings: Neuro Probe 48-well chamber, 3 hours, varying concentrations
Protocol: To confirm the chemotactic activity for progenitor cells within ECM degradation products, human perivascular stem cells were assessed in vitro in a Boyden chamber. The peptides IAGVGGEKSGGF (Peptide 1, SEQ ID NO: 1) and GPVGPSGPPGK (Peptide 2, SEQ ID NO: 2) were tested.
Perivascular stem cells were isolated from human muscle and propagated in culture as previously described (Crisan M, Yap S, Casteilla L, et al. A perivascular origin for mesenchymal stem cells in multiple human organs. Cell Stem Cell. 2008; 3:301-313).
Perivascular stem cells were cultured in Dulbecco's Modified Eagle's Medium (DMEM) supplemented with 20% fetal calf serum (FCS), 2 mM glutamine, 100 U/ml penicillin, and 100 μg/ml streptomycin in […] at 37° C.
Cultures at passages 10-12 and 50-70% confluence were starved in serum-free DMEM supplemented with 0.5% heat inactivated (FCS) for 14-17 hours. After starvation, cells were harvested in 0.25% trypsin and 0.53 mM EDTA, centrifuged, and resuspended in DMEM with 0.5% heat inactivated FCS at a concentration of 6×10^5 cells/ml for 1 hour. […] After 3 hours, cells facing the upper chamber on the filter were scraped off, and cells facing the bottom filter were fixed in methanol, stained with 500 nM DAPI (Sigma, D9564), and counted using ImageJ (NIH).

[2] = test system: C57/BL6 mice, amputated third digit; assay: Animal model of digit amputation (in vivo bone formation); design: species or system mouse
Protocol: Animal Model of Digit Amputation: Adult female 6- to 8-week-old C57/BL6 mice (n=4) were subjected to aseptic midsecond phalanx amputation of the third digit on both hind feet. At 0, 24, and 96 h after surgery 15 μL of 10 mM peptide 1 was injected into the footpad below the amputated digit using a 30-gauge needle. A second group of animals (n=4) were treated in the same way except that phosphate buffered saline (PBS) was injected instead of the peptide Animals were killed via cervical dislocation under isoflurane anesthesia at 14 days after surgery. Isolated toes were fixed in 10% neutral buffered formalin (NBF), embedded in paraffin and cut into 5 μm sections, before deparaffinization and staining with Alcian blue at pH 2.5, hematoxylin and eosin (H&E) or Masson's trichrome.

[3] = test system: human perivascular stem cells; assay: Human perivascular stem cells osteogenic differentiation; format: cell-based
Protocol: (§1) Source of Cells and Culture Conditions: Human perivascular stem cells were obtained as described above and were cultured in high-glucose Dulbecco's modified Eagle's medium (DMEM, Invitrogen) containing 20% fetal bovine serum (FBS; Thermo), 100 U/mL penicillin, and 100 μg/mL streptomycin (Sigma) at 37° C. in 5% CO2. Human cortical neuroepithelium stem (CTX) cells were cultured in DMEM:F12 supplemented with 0.03% Human albumin solution, 100 μg/ml human Apo-Transferrin, 16.2 μg/ml Putrescine DiHCl, 5 μg/ml Insulin, 60 ng/ml Progesterone, 2 mM L-Glutamine, 40 ng/ml Sodium Selinite, 10 ng/ml human bFGF, 20 ng/ml human Epidermal growth factor, and 100 nM 4-Hydroxytestosterone.
Human Perivascular Stem Cells Osteogenic Differentiation: Confluent perivascular stem cells were cultured in osteogenic differentiation medium (DMEM with 20% FBS, 20 μM ascorbic acid and 1.76 mM β-glycophosphate) and analyzed for the presence of calcium deposits after 4, 7, and 14 days. Calcium deposits were detected via fixation in 10% NBF and staining with 2% Alizarin Red.

[4] = test system: human cortical neuroepithelium stem (CTX) cells; assay: CTX cells chemotaxis assay; format: cell-based; settings: 5 h
Protocol: as §1
CTX Cells Chemotaxis Assay: CTX cells (human cortical neuroepithelium stem cells) were grown to ˜80% confluence, made into a single cell suspension, and the migration of 3×10^4 cells per well towards peptide 1 was assayed over 5 h. Migrated cells were stained by 4′,6-diamidino-2-phenylindole and quantified with ImageJ (NIH). All of the data are means of quadruplicate determinations with standard deviations. The assay was performed on three separate occasions.

Row | Sequence | Chemotactic activity for progenitor cells [1] | In vivo bone formation at the amputated digit ([2]; 15 μL of 10 mM peptide injected into footpad at 0, 24, 96 h, tissue at 14 days, H&E/trichrome, vs buffer) | Alcian blue staining of sulfated glycosaminoglycans (GAG) ([2]; 15 μL of 10 mM peptide into footpad, 14 days, buffer group showed diffuse GAG staining) | Bone nodules in standard culture medium ([3]; 100 μM peptide, not seen without peptide) | Bone nodules in osteogenic differentiation medium ([3]; 1, 10 or 100 μM peptide, vs differentiation medium alone) | Migration of CTX cells compared to media without peptide ([4]; all concentrations of peptide, 3×10^4 cells per well) | Peptide concentration at which CTX cell migration was highest ([4]; range of concentrations) [µM]
1 | IAGVGGEKSGGF (listed as Sus scrofa) [Peptide 1, 12-mer from porcine Collagen type III alpha 1, found in pepsin-digested UBM, chemically synthesized] | excellent chemotactic activity | formation of a bone like growth on the side of the amputated digit | concentrated GAG positive staining only at the bone nodule | caused the formation of bone nodules | more bone nodules | increased migration | 1
2 | GPVGPSGPPGK (listed as Sus scrofa) [Peptide 2, 11-mer from porcine Collagen type III alpha 1, found in pepsin-digested UBM, chemically synthesized] | excellent chemotactic activity | – | – | – | – | – | –
